# Measured values reported in paper PMC9401487 (Clinical Cancer Research, 2021).
# Test system: LoVo colorectal cancer cell line
# Assay: LoVo growth inhibition, ceralasertib alone or with carboplatin
# Format: cell-based, human
smiles,measurement,setting,value
C[C@@H]1COCCN1c1cc(C2([S@](C)(=N)=O)CC2)nc(-c2cc[nH]c3nccc2-3)n1 [ceralasertib],Combination cell killing with carboplatin,0.1 μmol/L ceralasertib,not at 0.1 μmol/L
same,Combination cell killing with carboplatin,0.3 μmol/L ceralasertib,combination cell killing with carboplatin was seen
same,Combination cell killing with carboplatin,1 μmol/L ceralasertib,Greater cell killing
